Laboratory results taken from the supplement of paper PMC10307832.

Columns and labels:
Experiment in all cases: relative viability (nuclei count vs DMSO), 5 days (fraction); higher = more cells survive
NCI-H1355 = system: NCI-H1355
In short: (§1)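 Relative viability divides the nuclei count in treated wells by that in vehicle wells. Lung cancer cell lines were seeded in 1536-well plates, dosed by pin tool the next day, and fixed and stained after 5 days in one step with final 0.05% Triton X-100, 1% formaldehyde and 1 ug/ml Hoechst. Dosing was a single drug or a fixed anchor-drug dose plus five library-drug doses (not always all listed) in √10 steps, and values are medians of duplicate plates imaged at 4×.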

NCI-H520 = system: NCI-H520
In short: as §1

NCI-H1755 = system: NCI-H1755
In short: as §1

PC-14 = system: PC-14
In short: as §1

HCC-827 = system: HCC-827
In short: as §1

NCI-H1975 = system: NCI-H1975
In short: as §1

H3255 = system: H3255
In short: as §1

PC-3 [JPC-3] = system: PC-3 [JPC-3]
In short: as §1

LK-2 = system: LK-2
In short: as §1

RERF-LC-KJ = system: RERF-LC-KJ
In short: as §1

NCI-H1563 = system: NCI-H1563
In short: as §1

NCI-H2342 = system: NCI-H2342
In short: as §1

NCI-H2405 = system: NCI-H2405
In short: as §1

NCI-H1734 = system: NCI-H1734
In short: as §1

EKVX = system: EKVX
In short: as §1

NCI-H322M = system: NCI-H322M
In short: as §1

HCC-15 = system: HCC-15
In short: as §1

LCLC-97TM1 = system: LCLC-97TM1
In short: as §1

NCI-H2228 = system: NCI-H2228
In short: as §1

NCI-H1650 = system: NCI-H1650
In short: as §1

NCI-H661 = system: NCI-H661
In short: as §1

CAL-12T = system: CAL-12T
In short: as §1

CCN(CC)CCCCNc1ncc2cc(-c3cc(OC)cc(OC)c3)c(NC(=O)NC(C)(C)C)nc2n1 + N=C(N)NC(=N)NCCc1ccccc1 [Phenformin] (partner 250 µM)
relative viability (NCI-H1355; first compound 0.01 µM): 0.446 | relative viability (NCI-H1355; first compound 0.03162 µM): 0.443 | relative viability (NCI-H1355; first compound 0.1 µM): 0.468 | relative viability (NCI-H1355; first compound 0.3162 µM): 0.501 | relative viability (NCI-H1355; first compound 1 µM): 0.413 | relative viability (NCI-H520; first compound 0.01 µM): 0.453 | relative viability (NCI-H520; first compound 0.03162 µM): 0.519 | relative viability (NCI-H520; first compound 0.1 µM): 0.623 | relative viability (NCI-H520; first compound 0.3162 µM): 0.335 | relative viability (NCI-H520; first compound 1 µM): 0.191 | relative viability (NCI-H1755; first compound 0.01 µM): 0.634 | relative viability (NCI-H1755; first compound 0.03162 µM): 0.649 | relative viability (NCI-H1755; first compound 0.1 µM): 0.677 | relative viability (NCI-H1755; first compound 0.3162 µM): 0.675 | relative viability (NCI-H1755; first compound 1 µM): 0.585 | relative viability (PC-14; first compound 0.01 µM): 0.439 | relative viability (PC-14; first compound 0.03162 µM): 0.426 | relative viability (PC-14; first compound 0.1 µM): 0.661 | relative viability (PC-14; first compound 0.3162 µM): 0.87 | relative viability (PC-14; first compound 1 µM): 0.387 | relative viability (HCC-827; first compound 0.01 µM): 0.437 | relative viability (HCC-827; first compound 0.03162 µM): 0.422 | relative viability (HCC-827; first compound 0.1 µM): 0.417 | relative viability (HCC-827; first compound 0.3162 µM): 0.467 | relative viability (HCC-827; first compound 1 µM): 0.426 | relative viability (NCI-H1975; first compound 0.01 µM): 0.429 | relative viability (NCI-H1975; first compound 0.03162 µM): 0.398 | relative viability (NCI-H1975; first compound 0.1 µM): 0.481 | relative viability (NCI-H1975; first compound 0.3162 µM): 0.408 | relative viability (NCI-H1975; first compound 1 µM): 0.401 | relative viability (H3255; first compound 0.01 µM): 0.347 | relative viability (H3255; first compound 0.03162 µM): 0.336 | relative viability (H3255; first compound 0.1 µM): 0.27 | relative viability (H3255; first compound 0.3162 µM): 0.408 | relative viability (H3255; first compound 1 µM): 0.356 | relative viability (PC-3 [JPC-3]; first compound 0.01 µM): 0.485 | relative viability (PC-3 [JPC-3]; first compound 0.03162 µM): 0.484 | relative viability (PC-3 [JPC-3]; first compound 0.1 µM): 0.487 | relative viability (PC-3 [JPC-3]; first compound 0.3162 µM): 0.498 | relative viability (PC-3 [JPC-3]; first compound 1 µM): 0.449 | relative viability (LK-2; first compound 0.01 µM): 0.638 | relative viability (LK-2; first compound 0.03162 µM): 0.289 | relative viability (LK-2; first compound 0.1 µM): 0.239 | relative viability (LK-2; first compound 0.3162 µM): 0.304 | relative viability (LK-2; first compound 1 µM): 0.223 | relative viability (RERF-LC-KJ; first compound 0.01 µM): 0.389 | relative viability (RERF-LC-KJ; first compound 0.03162 µM): 0.463 | relative viability (RERF-LC-KJ; first compound 0.1 µM): 0.469 | relative viability (RERF-LC-KJ; first compound 0.3162 µM): 0.471 | relative viability (RERF-LC-KJ; first compound 1 µM): 0.469 | relative viability (NCI-H1563; first compound 0.01 µM): 0.662 | relative viability (NCI-H1563; first compound 0.03162 µM): 0.66 | relative viability (NCI-H1563; first compound 0.1 µM): 0.689 | relative viability (NCI-H1563; first compound 0.3162 µM): 0.582 | relative viability (NCI-H1563; first compound 1 µM): 0.549 | relative viability (NCI-H2342; first compound 0.01 µM): 0.578 | relative viability (NCI-H2342; first compound 0.03162 µM): 0.582 | relative viability (NCI-H2342; first compound 0.1 µM): 0.56 | relative viability (NCI-H2342; first compound 0.3162 µM): 0.664 | relative viability (NCI-H2342; first compound 1 µM): 0.648 | relative viability (NCI-H2405; first compound 0.01 µM): 0.38 | relative viability (NCI-H2405; first compound 0.03162 µM): 0.412 | relative viability (NCI-H2405; first compound 0.1 µM): 0.518 | relative viability (NCI-H2405; first compound 0.3162 µM): 0.427 | relative viability (NCI-H2405; first compound 1 µM): 0.315 | relative viability (NCI-H1734; first compound 0.01 µM): 0.356 | relative viability (NCI-H1734; first compound 0.03162 µM): 0.363 | relative viability (NCI-H1734; first compound 0.1 µM): 0.384 | relative viability (NCI-H1734; first compound 0.3162 µM): 0.364 | relative viability (NCI-H1734; first compound 1 µM): 0.354 | relative viability (EKVX; first compound 0.01 µM): 0.223 | relative viability (EKVX; first compound 0.03162 µM): 0.227 | relative viability (EKVX; first compound 0.1 µM): 0.243 | relative viability (EKVX; first compound 0.3162 µM): 0.258 | relative viability (EKVX; first compound 1 µM): 0.248 | relative viability (NCI-H322M; first compound 0.01 µM): 0.77 | relative viability (NCI-H322M; first compound 0.03162 µM): 0.779 | relative viability (NCI-H322M; first compound 0.1 µM): 0.791 | relative viability (NCI-H322M; first compound 0.3162 µM): 0.784 | relative viability (NCI-H322M; first compound 1 µM): 0.668 | relative viability (HCC-15; first compound 0.01 µM): 0.466 | relative viability (HCC-15; first compound 0.03162 µM): 0.535 | relative viability (HCC-15; first compound 0.1 µM): 0.526 | relative viability (HCC-15; first compound 0.3162 µM): 0.484 | relative viability (HCC-15; first compound 1 µM): 0.424 | relative viability (LCLC-97TM1; first compound 0.01 µM): 0.465 | relative viability (LCLC-97TM1; first compound 0.03162 µM): 0.42 | relative viability (LCLC-97TM1; first compound 0.1 µM): 0.514 | relative viability (LCLC-97TM1; first compound 0.3162 µM): 0.428 | relative viability (LCLC-97TM1; first compound 1 µM): 0.506 | relative viability (NCI-H2228; first compound 0.01 µM): 0.341 | relative viability (NCI-H2228; first compound 0.03162 µM): 0.336 | relative viability (NCI-H2228; first compound 0.1 µM): 0.384 | relative viability (NCI-H2228; first compound 0.3162 µM): 0.346 | relative viability (NCI-H2228; first compound 1 µM): 0.304 | relative viability (NCI-H1650; first compound 0.01 µM): 0.456 | relative viability (NCI-H1650; first compound 0.03162 µM): 0.416 | relative viability (NCI-H1650; first compound 0.1 µM): 0.503 | relative viability (NCI-H1650; first compound 0.3162 µM): 0.319 | relative viability (NCI-H1650; first compound 1 µM): 0.232 | relative viability (NCI-H661; first compound 0.01 µM): 0.289 | relative viability (NCI-H661; first compound 0.03162 µM): 0.297 | relative viability (NCI-H661; first compound 0.1 µM): 0.27 | relative viability (NCI-H661; first compound 0.3162 µM): 0.291 | relative viability (NCI-H661; first compound 1 µM): 0.278 | relative viability (CAL-12T; first compound 0.01 µM): 0.595 | relative viability (CAL-12T; first compound 0.03162 µM): 0.582 | relative viability (CAL-12T; first compound 0.1 µM): 0.673 | relative viability (CAL-12T; first compound 0.3162 µM): 0.726 | relative viability (CAL-12T; first compound 1 µM): 0.573
